Assay results from article PMC12024234, “Antioxidant, Anti-Inflammatory, and Oral Bioavailability of Novel Sulfonamide Derivatives of Gallic Acid” (Antioxidants, 2025).
Values joined by “and” are separate entries in the source; they are usually repeats but may differ in a detail not shown here. Equal values may be shown once.

Experiments:
[1] = biological target: T1, CYP2D6 (Homo sapiens, UniProt P10635); assay: Metabolism by cytochrome P450 2D6 (CypExpress), HPLC; type: in vitro ADME
T1 construct: purchased Sigma Aldrich C4982

[2] = biological target: Bovine Serum Albumin (BSA) (Bos taurus, UniProt P02769); assay: Protein denaturation assay; type: biochemical; conditions: at 100 nM and higher concentrations (range 1–1000 nM)
Protocol: The anti-inflammatory potential of the compounds was evaluated using a protein denaturation assay, a well-established method to assess the capacity of test substances to inhibit protein denaturation, a key marker of inflammation. […] After heating, the samples were allowed to cool to room temperature, and the turbidity of the solutions, indicative of protein precipitation, was measured spectrophotometrically at 660 nm. A reduction in turbidity corresponds to the inhibition of protein denaturation, reflecting the anti-inflammatory activity of the tested compounds.

T1 sequence (P10635 whole entry): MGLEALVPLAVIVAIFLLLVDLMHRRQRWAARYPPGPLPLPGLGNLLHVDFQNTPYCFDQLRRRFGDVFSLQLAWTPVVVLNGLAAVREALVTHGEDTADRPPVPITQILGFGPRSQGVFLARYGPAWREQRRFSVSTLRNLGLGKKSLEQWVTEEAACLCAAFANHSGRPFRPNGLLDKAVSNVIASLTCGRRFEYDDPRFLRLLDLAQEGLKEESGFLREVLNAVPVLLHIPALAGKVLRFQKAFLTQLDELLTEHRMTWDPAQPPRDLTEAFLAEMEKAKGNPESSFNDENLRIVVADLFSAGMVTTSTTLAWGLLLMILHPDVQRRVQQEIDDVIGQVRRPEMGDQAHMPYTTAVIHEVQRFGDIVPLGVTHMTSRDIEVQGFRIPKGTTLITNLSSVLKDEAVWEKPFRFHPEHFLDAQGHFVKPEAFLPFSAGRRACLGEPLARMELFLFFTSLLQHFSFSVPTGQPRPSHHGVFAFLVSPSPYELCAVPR
Sequence of Bovine Serum Albumin (BSA) (P02769 25-607): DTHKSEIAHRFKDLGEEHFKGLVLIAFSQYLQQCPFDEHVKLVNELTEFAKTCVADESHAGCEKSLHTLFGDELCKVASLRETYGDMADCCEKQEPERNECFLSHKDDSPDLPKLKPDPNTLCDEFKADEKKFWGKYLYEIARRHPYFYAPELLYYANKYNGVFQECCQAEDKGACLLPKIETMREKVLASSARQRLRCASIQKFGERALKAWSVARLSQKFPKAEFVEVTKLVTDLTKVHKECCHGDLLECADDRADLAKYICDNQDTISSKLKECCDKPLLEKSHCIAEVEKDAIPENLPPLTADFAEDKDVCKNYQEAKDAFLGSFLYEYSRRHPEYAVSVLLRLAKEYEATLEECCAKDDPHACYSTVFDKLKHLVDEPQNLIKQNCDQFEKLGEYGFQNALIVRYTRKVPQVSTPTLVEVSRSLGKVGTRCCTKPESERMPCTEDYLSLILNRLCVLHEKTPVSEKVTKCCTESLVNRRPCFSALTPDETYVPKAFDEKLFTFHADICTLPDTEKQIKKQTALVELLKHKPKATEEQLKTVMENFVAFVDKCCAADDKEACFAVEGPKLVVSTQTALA

Molecule `COc1cc(S(N)(=O)=O)cc(OC)c1OC` [3,4,5-TMBS, 3,4,5-trimethoxybenzenesulfonamide] has a Metabolism by CYP2D6 (concentration) ([1]; 1000 µM, 1 h) of 754 ± 35.5 µM, a Metabolism by CYP2D6 (concentration) ([1]; 1000 µM, 3 h) of 860.62 ± 0.71 µM and a Metabolism by CYP2D6 (concentration) ([1]; 1500 µM, 1 h) of 984 ± 161 µM. For the same molecule, the Metabolism by CYP2D6 (concentration) ([1]; 1500 µM, 3 h) was 1241 ± 12.2 µM, the “Percentage metabolized by CYP2D6” value ([1]; 1500 µM, one-hour time point) was 65% and 65.5% and the “Anti-inflammatory activity (inhibition of protein denaturation) compared to ibuprofen” value [2] was “significant increase in anti-inflammatory activity”.
